# Experimental data reported in ChEMBL document CHEMBL5352469, “Solubility-driven optimization of benzothiopyranone salts leading to a preclinical candidate with improved pharmacokinetic properties and activity against Mycobacterium tuberculosis” (Eur J Med Chem, 2023).
# Columns and labels:
# [1] = Aqueous solubility of compound by HPLC-PDA method; format: physicochemical; settings: buffer; read-out: solubility
# [2] = Apparent permeability across apical to basolateral side in human Caco-2 cells incubated for 21 days; format: ADME, cell-based; settings: time 21 day
# [3] = Apparent permeability across basolateral to apical side in human Caco-2 cells incubated for 21 days; format: ADME, cell-based; settings: time 21 day
# [4] = Efflux ratio of apparent permeability across basolateral to apical side over apical to basolateral side in human Caco-2 cells; format: ADME, cell-based
# [5] = Elimination half life in Balb/c mouse at 50 mg/kg, po measured upto 24 hrs by LC/MS/MS analysis; format: ADME, organism-based; settings: in vivo, read-out: beta t1/2 (converted)
# [6] = Elimination half life in Balb/c mouse at 5 mg/kg, iv measured upto 24 hrs by LC/MS/MS analysis; format: ADME, organism-based; settings: in vivo, read-out: beta t1/2 (converted)
# [7] = Tmax in Balb/c mouse at 50 mg/kg, po measured upto 24 hrs by LC/MS/MS analysis; format: ADME, organism-based; settings: in vivo
# [8] = Cmax in Balb/c mouse at 50 mg/kg, po measured upto 24 hrs by LC/MS/MS analysis; format: ADME, organism-based; parameters: time < 24 hrs, dose 50 mg/kg, route po; settings: in vivo
# [9] = Cmax in Balb/c mouse at 5 mg/kg, iv measured upto 24 hrs by LC/MS/MS analysis; format: ADME, organism-based; parameters: dose 5 mg/kg, time < 24 hrs, route iv; settings: in vivo
# [10] = AUC (0 to t) in Balb/c mouse at 50 mg/kg, po measured upto 24 hrs by LC/MS/MS analysis; format: ADME, organism-based; parameters: dose 50 mg/kg, time < 24 hrs, route po; settings: in vivo; for AUC(0-t) at 24 h: Balb/c
# [11] = AUC (0 to t) in Balb/c mouse at 5 mg/kg, iv measured upto 24 hrs by LC/MS/MS analysis; format: ADME, organism-based; parameters: time < 24 hrs, dose 5 mg/kg, route iv; settings: in vivo; for AUC(0-t) at 24 h: Balb/c
# [12] = Oral bioavailability in Balb/c mouse at 50 mg/kg measured upto 24 hrs by LC/MS/MS analysis; format: ADME, organism-based; settings: in vivo; for bioavailability: Balb/c
# [13] = Elimination half life in Sprague-Dawley rat at 50 mg/kg, po measured upto 24 hrs by LC/MS/MS analysis; format: ADME, organism-based; settings: in vivo, read-out: beta t1/2 (converted)
# [14] = Elimination half life in Sprague-Dawley rat at 5 mg/kg, iv measured upto 24 hrs by LC/MS/MS analysis; format: ADME, organism-based; settings: in vivo, read-out: beta t1/2 (converted)
# [15] = Tmax in Sprague-Dawley rat at 50 mg/kg, po measured upto 24 hrs by LC/MS/MS analysis; format: ADME, organism-based; settings: in vivo
# [16] = Cmax in Sprague-Dawley rat at 50 mg/kg, po measured upto 24 hrs by LC/MS/MS analysis; format: ADME, organism-based; parameters: time < 24 hrs, dose 50 mg/kg, route po; settings: in vivo
# [17] = Cmax in Sprague-Dawley rat at 5 mg/kg, iv measured upto 24 hrs by LC/MS/MS analysis; format: ADME, organism-based; parameters: time < 24 hrs, dose 5 mg/kg, route iv; settings: in vivo
# [18] = AUC (0 to t) in Sprague-Dawley rat at 50 mg/kg, po measured upto 24 hrs by LC/MS/MS analysis; format: ADME, organism-based; parameters: dose 50 mg/kg, time < 24 hrs, route po; settings: in vivo
# [19] = AUC (0 to t) in Sprague-Dawley rat at 5 mg/kg, iv measured upto 24 hrs by LC/MS/MS analysis; format: ADME, organism-based; parameters: time < 24 hrs, dose 5 mg/kg, route iv; settings: in vivo
# [20] = AUC (0 to infinity) in Sprague-Dawley rat at 50 mg/kg, po measured upto 24 hrs by LC/MS/MS analysis; format: ADME, organism-based; parameters: time < 24 hrs, dose 50 mg/kg, route po; settings: in vivo
# [21] = AUC (0 to infinity) in Sprague-Dawley rat at 5 mg/kg, iv measured upto 24 hrs by LC/MS/MS analysis; format: ADME, organism-based; parameters: time < 24 hrs, dose 5 mg/kg, route iv; settings: in vivo
# [22] = MRT (0 to infinity) in Sprague-Dawley rat at 50 mg/kg, po measured upto 24 hrs by LC/MS/MS analysis; format: ADME, organism-based; settings: in vivo
# [23] = MRT (0 to infinity) in Sprague-Dawley rat at 5 mg/kg, iv measured upto 24 hrs by LC/MS/MS analysis; format: ADME, organism-based; settings: in vivo
# [24] = Clearance in Sprague-Dawley rat at 5 mg/kg, iv measured upto 24 hrs by LC/MS/MS analysis; format: ADME, organism-based; settings: in vivo
# [25] = Oral bioavailability in Sprague-Dawley rat at 50 mg/kg measured upto 24 hrs by LC/MS/MS analysis; format: ADME, organism-based; settings: in vivo
# [26] = Chemical stability of the compound under 4500 +/- 500 lx light condition by measuring compound purity incubated for 10 days by HPLC-PDA method relative to initial purity; format: physicochemical; settings: time 10 day; for Stability: 240 h
# [27] = Chemical stability of the compound under 60 degree C high temperature by measuring compound purity incubated for 10 days by HPLC-PDA method analysis relative to initial purity; format: physicochemical; settings: time 10 day; for Stability: 240 h
# [28] = Chemical stability of the compound under 92.5% humidity by measuring compound purity incubated for 10 days by HPLC-PDA method relative to initial purity; format: physicochemical; settings: time 10 day; for Stability: 240 h
# [29] = Lipophilicity, log P of the compound in octanol/water incubated for 72 hrs under shaking condition by shake flask based HPLC-PDA method; format: physicochemical
# [30] = Lipophilicity, log D of the compound in octanol/water at pH 2.0 incubated for 72 hrs under shaking condition by shake flask based HPLC-PDA method; format: physicochemical
# [31] = Lipophilicity, log D of the compound in octanol/water at pH 4.0 incubated for 72 hrs under shaking condition by shake flask based HPLC-PDA method; format: physicochemical
# [32] = Lipophilicity, log D of the compound in octanol/water at pH 6.8 incubated for 72 hrs under shaking condition by shake flask based HPLC-PDA method; format: physicochemical
# [33] = Lipophilicity, log D of the compound in octanol/water at pH 7.6 incubated for 72 hrs under shaking condition by shake flask based HPLC-PDA method; format: physicochemical
# [34] = system: Mycobacterium tuberculosis; assay: Antibacterial activity against Mycobacterium tuberculosis H37Rv by microplate alamar blue assay; format: functional
# [35] = system: Mycobacterium tuberculosis; assay: Antibacterial activity against Mycobacterium tuberculosis H37Rv BALB/c mouse model assessed as reduction in CFU in lungs at 12.5 mg/kg via oral gavage for 30 days (reference value: 5.35 +/-0.17); format: functional; settings: time 30 day
# [36] = system: Mycobacterium tuberculosis; assay: Antibacterial activity against Mycobacterium tuberculosis H37Rv BALB/c mouse model assessed as reduction in CFU in lungs at 25 mg/kg via oral gavage for 30 days (reference value: 5.35 +/-0.17); format: functional; settings: time 30 day
# [37] = system: Mycobacterium tuberculosis; assay: Antibacterial activity against Mycobacterium tuberculosis H37Rv BALB/c mouse model assessed as reduction in delta CFU in lungs at 12.5 mg/kg via oral gavage for 30 days; format: functional; settings: time 30 day
# [38] = system: Mycobacterium tuberculosis; assay: Antibacterial activity against Mycobacterium tuberculosis H37Rv BALB/c mouse model assessed as reduction in delta CFU in lungs at 25 mg/kg via oral gavage for 30 days; format: functional; settings: time 30 day
# [39] = system: Mycobacterium tuberculosis; assay: Antibacterial activity against Mycobacterium tuberculosis H37Rv BALB/c mouse model assessed as reduction in CFU in lungs at 25 mg/kg via oral gavage for 30 days (reference value: 5.92 +/-0.29); format: functional; settings: time 30 day
SMILES,solubility [1],Papp A→B [2],Papp B→A [3],efflux ratio [4],half-life [5],half-life [6],Tmax [7],Cmax [8],Cmax [9],half-life [13],half-life [14],Tmax [15],Cmax [16],Cmax [17],AUC(0-t) at 24 h [18],AUC(0-t) at 24 h [19],AUC(0-inf) [20],AUC(0-inf) [21],MRT inf [22],MRT inf [23],further results
Cl.O=c1cc(N2CCN(CC3CCCCC3)CC2)sc2c([N+](=O)[O-])cc(C(F)(F)F)cc12,28.1 µg/mL,0.39 ×10⁻⁶ cm/s,0.14 ×10⁻⁶ cm/s,0.36,403 min,455 min,0.42 h,502 ng/mL,5990 ng/mL,323 min,475 min,1.67 h,163 ng/mL,3490 ng/mL,961 ng·h/mL,1890 ng·h/mL,982 ng·h/mL,1940 ng·h/mL,5.13 h,2.52 h,"AUCt ([10]; 24 h): 2251 ng·h/mL; AUCt ([11]; 24 h): 6434 ng·h/mL; F ([12]; po, 50 mg/kg, 24 h): 14.1%; clearance [24]: 43.6 mL/min/kg; bioavailability [25]: 5.07%; Stability [26]: 99.8%; Stability [27]: 100%; Stability [28]: 100%; logP ([29]; 72 h): 2.56; logD ([30]; pH 2, 72 h): 1.3; logD ([31]; pH 4, 72 h): 3.77; logD ([32]; pH 6.8, 72 h): > 4.27; logD ([33]; pH 7.6, 72 h): > 4.29"
O=C(O)C[C@H](O)C(=O)O.O=c1cc(N2CCN(CC3CCCCC3)CC2)sc2c([N+](=O)[O-])cc(C(F)(F)F)cc12,158 µg/mL,7.78 ×10⁻⁶ cm/s,0.28 ×10⁻⁶ cm/s,,360 min,354 min,1 h,979 ng/mL,3950 ng/mL,,,,,,,,,,,,AUC(0-t) at 24 h [10]: 7280 ng·h/mL; AUC(0-t) at 24 h [11]: 2730 ng·h/mL; bioavailability [12]: 27.7%; Stability [26]: 90.6%; Stability [27]: 98.2%; Stability [28]: 98.3%
O=C(O)/C=C\C(=O)O.O=c1cc(N2CCN(CC3CCCCC3)CC2)sc2c([N+](=O)[O-])cc(C(F)(F)F)cc12,114 µg/mL,3.1 ×10⁻⁶ cm/s,0.25 ×10⁻⁶ cm/s,0.1,359 min,397 min,1.5 h,776 ng/mL,3090 ng/mL,274 min,386 min,3.33 h,282 ng/mL,3880 ng/mL,2130 ng·h/mL,1710 ng·h/mL,2180 ng·h/mL,1740 ng·h/mL,5.91 h,2.46 h,AUC(0-t) at 24 h [10]: 7110 ng·h/mL; AUC(0-t) at 24 h [11]: 2570 ng·h/mL; bioavailability [12]: 28%; clearance [24]: 52.4 mL/min/kg; bioavailability [25]: 12.5%; remaining at 240 h ([26]; read-out: Stability): 100%; remaining at 240 h ([27]; read-out: Stability): 100%; remaining at 240 h ([28]; read-out: Stability): 100%; logP at 72 h [29]: 2.6; logD at 72 h ([30]; pH 2): 1.31; logD at 72 h ([31]; pH 4): 3.6; logD at 72 h ([32]; pH 6.8): > 4.24; logD at 72 h ([33]; pH 7.6): > 4.24; MIC [34]: < 0.016 µg/mL; Activity [35]: 4.6 log10CFU; Activity [36]: 2.12 log10CFU; Activity [37]: 0.75 log10CFU; Activity [38]: 3.23 log10CFU
NNC(=O)c1ccncc1 [ISONIAZID],,,,,,,,,,,,,,,,,,,,,Activity [39]: 3.64 log10CFU; Activity [38]: 3.89 log10CFU
